Results from patent publication US12471596B2 (priority 2019, dated 2025).

Test system: Phytophthora infestans
Test: microbe, parasite or virus in culture
Format: cell-based
Details: in Secale cereale, 168 h, read-out: control compared to the untreated check

**Q.** With `O=C(COc1nccc(C(F)(F)F)n1)N1CCC(c2nc(C3=NOC(c4c(Cl)cccc4C(F)(F)F)C3)cs2)CC1` (stereo not drawn) [Compound 84, 1-(4-(4-(5-(2-chloro-6-(trifluoromethyl)phenyl)-4,5-dihydroisoxazol-3-yl)thiazol-2-yl)piperidin-1-yl)-2-((4-(trifluoromethyl)pyrimidin-2-yl)oxy)ethan-1-one] as the compound, how does the inhibition of growth at 30 ppm read?
**A.** The inhibition of growth at 30 ppm was ≥ 70%.

**Q.** How did the inhibition of growth at 30 ppm turn out when `COc1ncc(OCC(=O)N2CCC(c3nc(C4=NOC(c5c(O)cccc5Cl)C4)cs3)CC2)cn1` (stereo not drawn) [Compound 138, 1-(4-(4-(5-(2-chloro-6-hydroxyphenyl)-4,5-dihydroisoxazol-3-yl)thiazol-2-yl)piperidin-1-yl)-2-((2-methoxypyrimidin-5-yl)oxy)ethan-1-one] was run?
**A.** Its inhibition of growth at 30 ppm is ≥ 70%.

**Q.** How did the inhibition of growth at 30 ppm turn out when `COc1cncnc1OCC(=O)N1CCC(c2nc(C3=NOC(c4c(O)cccc4Cl)C3)cs2)CC1` (stereo not drawn) [Compound 79, 1-(4-(4-(5-(2-chloro-6-hydroxyphenyl)-4,5-dihydroisoxazol-3-yl)thiazol-2-yl)piperidin-1-yl)-2-((5-methoxypyrimidin-4-yl)oxy)ethan-1-one] was run?
**A.** Its inhibition of growth at 30 ppm is ≥ 70%.

**Q.** `O=C(COc1cncc(C(F)(F)F)n1)N1CCC(c2nc(C3=NOC(c4c(Cl)ccc(F)c4F)C3)cs2)CC1` (stereo not drawn) [Compound 61, 1-(4-(4-(5-(6-chloro-2,3-difluorophenyl)-4,5-dihydroisoxazol-3-yl)thiazol-2-yl)piperidin-1-yl)-2-((6-(trifluoromethyl)pyrazin-2-yl)oxy)ethan-1-one] was tested. Which inhibition of growth at 30 ppm did it give?
**A.** Its inhibition of growth at 30 ppm is ≥ 70%.

**Q.** Which inhibition of growth at 30 ppm does the source give for `O=C(COc1nccc(C(F)(F)F)n1)N1CCC(c2nc(C3=NOC(c4c(Cl)ccc(F)c4F)C3)cs2)CC1` (stereo not drawn) [Compound 70, 1-(4-(4-(5-(6-chloro-2,3-difluorophenyl)-4,5-dihydroisoxazol-3-yl)thiazol-2-yl)piperidin-1-yl)-2-((4-(trifluoromethyl)pyrimidin-2-yl)oxy)ethan-1-one] here?
**A.** Its inhibition of growth at 30 ppm is ≥ 70%.

**Q.** Which inhibition of growth at 30 ppm does the source give for `COc1ncc(OCC(=O)N2CCC(c3nc(C4=NOC(c5c(Cl)cccc5C(F)(F)F)C4)cs3)CC2)cn1` (stereo not drawn) [Compound 137, 1-(4-(4-(5-(2-chloro-6-(trifluoromethyl)phenyl)-4,5-dihydroisoxazol-3-yl)thiazol-2-yl)piperidin-1-yl)-2-((2-methoxypyrimidin-5-yl)oxy)ethan-1-one] here?
**A.** The inhibition of growth at 30 ppm was ≥ 70%.

**Q.** How did the inhibition of growth at 30 ppm turn out when `COc1cncnc1OCC(=O)N1CCC(c2nc(C3=NOC(c4c(Cl)cccc4C(F)(F)F)C3)cs2)CC1` (stereo not drawn) [Compound 80, 1-(4-(4-(5-(2-chloro-6-(trifluoromethyl)phenyl)-4,5-dihydroisoxazol-3-yl)thiazol-2-yl)piperidin-1-yl)-2-((5-methoxypyrimidin-4-yl)oxy)ethan-1-one] was run?
**A.** Its inhibition of growth at 30 ppm is ≥ 70%.

**Q.** `CS(=O)(=O)Oc1cccc(Cl)c1C1CC(c2csc(C3CCN(C(=O)COc4ccnc(C(F)(F)F)n4)CC3)n2)=NO1` (stereo not drawn) [Compound 21, 3-chloro-2-(3-(2-(1-(2-((2-(trifluoromethyl)pyrimidin-4-yl)oxy)acetyl)piperidin-4-yl)thiazol-4-yl)-4,5-dihydroisoxazol-5-yl)phenyl methanesulfonate] was tested. Which inhibition of growth at 30 ppm did it give?
**A.** Its inhibition of growth at 30 ppm is ≥ 70%.

**Q.** `COc1nc(OC)nc(OCC(=O)N2CCC(c3nc(C4=NOC(c5c(Cl)cccc5C(F)(F)F)C4)cs3)CC2)n1` (stereo not drawn) [Compound 105, 1-(4-(4-(5-(2-chloro-6-(trifluoromethyl)phenyl)-4,5-dihydroisoxazol-3-yl)thiazol-2-yl)piperidin-1-yl)-2-((4,6-dimethoxy-1,3,5-triazin-2-yl)oxy)ethan-1-one] was tested. Which inhibition of growth at 30 ppm did it give?
**A.** The inhibition of growth at 30 ppm was ≥ 70%.

**Q.** How did the inhibition of growth at 30 ppm turn out when `O=C(CSc1ccc(C(F)(F)F)nn1)N1CCC(c2nc(C3=NOC(c4c(F)cccc4F)C3)cs2)CC1` (stereo not drawn) [Compound 150, 1-(4-(4-(5-(2,6-difluorophenyl)-4,5-dihydroisoxazol-3-yl)thiazol-2-yl)piperidin-1-yl)-2-((6-(trifluoromethyl)pyridazin-3-yl)thio)ethan-1-one] was run?
**A.** The inhibition of growth at 30 ppm was ≥ 70%.

**Q.** How did the inhibition of growth at 30 ppm turn out when `CSc1nccnc1OCC(=O)N1CCC(c2nc(C3=NOC(c4c(Cl)ccc(F)c4F)C3)cs2)CC1` (stereo not drawn) [Compound 147, 1-(4-(4-(5-(6-chloro-2,3-difluorophenyl)-4,5-dihydroisoxazol-3-yl)thiazol-2-yl)piperidin-1-yl)-2-((3-(methylthio)pyrazin-2-yl)oxy)ethan-1-one] was run?
**A.** Its inhibition of growth at 30 ppm is ≥ 70%.

**Q.** `COc1ccnc(OCC(=O)N2CCC(c3nc(C4=NOC(c5c(O)cccc5Cl)C4)cs3)CC2)n1` (stereo not drawn) [Compound 83, 1-(4-(4-(5-(2-chloro-6-hydroxyphenyl)-4,5-dihydroisoxazol-3-yl)thiazol-2-yl)piperidin-1-yl)-2-((4-methoxypyrimidin-2-yl)oxy)ethan-1-one] was tested. Which inhibition of growth at 30 ppm did it give?
**A.** The inhibition of growth at 30 ppm was ≥ 70%.

**Q.** With `O=C(COc1cncc(C(F)(F)F)n1)N1CCC(c2nc(C3=NOC(c4c(Cl)cccc4C(F)(F)F)C3)cs2)CC1` (stereo not drawn) [Compound 68, 1-(4-(4-(5-(2-chloro-6-(trifluoromethyl)phenyl)-4,5-dihydroisoxazol-3-yl)thiazol-2-yl)piperidin-1-yl)-2-((6-(trifluoromethyl)pyrazin-2-yl)oxy)ethan-1-one] as the compound, how does the inhibition of growth at 30 ppm read?
**A.** Its inhibition of growth at 30 ppm is ≥ 70%.

**Q.** Which inhibition of growth at 30 ppm does the source give for `O=C(COc1cc(C(F)(F)F)ncn1)N1CCC(c2nc(C3=NOC(c4c(Cl)cccc4C(F)(F)F)C3)cs2)CC1` (stereo not drawn) [Compound 10, 1-(4-(4-(5-(2-chloro-6-(trifluoromethyl)phenyl)-4,5-dihydroisoxazol-3-yl)thiazol-2-yl)piperidin-1-yl)-2-((6-(trifluoromethyl)pyrimidin-4-yl)oxy)ethan-1-one] here?
**A.** The inhibition of growth at 30 ppm was ≥ 70%.

**Q.** Which inhibition of growth at 30 ppm does the source give for `N#Cc1cccc(Cl)c1C1CC(c2csc(C3CCN(C(=O)COc4nccc(C(F)(F)F)n4)CC3)n2)=NO1` (stereo not drawn) [Compound 45, 3-chloro-2-(3-(2-(1-(2-((4-(trifluoromethyl)pyrimidin-2-yl)oxy)acetyl)piperidin-4-yl)thiazol-4-yl)-4,5-dihydroisoxazol-5-yl)benzonitrile] here?
**A.** The inhibition of growth at 30 ppm was ≥ 70%.

**Q.** For `O=C(COc1cc(C(F)(F)F)ncn1)N1CCC(c2nc(C3=NOC(c4c(Cl)cc(Cl)cc4Cl)C3)cs2)CC1` (stereo not drawn) [Compound 11, 1-(4-(4-(5-(2,4,6-trichlorophenyl)-4,5-dihydroisoxazol-3-yl)thiazol-2-yl)piperidin-1-yl)-2-((6-(trifluoromethyl)pyrimidin-4-yl)oxy)ethan-1-one], which inhibition of growth at 30 ppm is on record?
**A.** Its inhibition of growth at 30 ppm is ≥ 70%.

**Q.** How did the inhibition of growth at 30 ppm turn out when `COc1cncc(OCC(=O)N2CCC(c3nc(C4=NOC(c5c(Cl)cccc5OS(C)(=O)=O)C4)cs3)CC2)n1` (stereo not drawn) [Compound 103, 3-chloro-2-(3-(2-(1-(2-((6-methoxypyrazin-2-yl)oxy)acetyl)piperidin-4-yl)thiazol-4-yl)-4,5-dihydroisoxazol-5-yl)phenyl methanesulfonate] was run?
**A.** The inhibition of growth at 30 ppm was ≥ 70%.

**Q.** Which inhibition of growth at 30 ppm does the source give for `CS(=O)(=O)Oc1ccc(F)c2c1COC(c1csc(C3CCN(C(=O)COc4nccnc4Cl)CC3)n1)OC2` (stereo not drawn) [Compound 155, 3-(2-(1-(2-((3-chloropyrazin-2-yl)oxy)acetyl)piperidin-4-yl)thiazol-4-yl)-9-fluoro-1,5-dihydrobenzo[e][1,3]dioxepin-6-yl methanesulfonate] here?
**A.** The inhibition of growth at 30 ppm was ≥ 70%.

**Q.** With `CS(=O)(=O)Oc1cccc(Cl)c1C1CC(c2csc(C3CCN(C(=O)COc4nccc(C(F)(F)F)n4)CC3)n2)=NO1` (stereo not drawn) [Compound 46, 3-chloro-2-(3-(2-(1-(2-((4-(trifluoromethyl)pyrimidin-2-yl)oxy)acetyl)piperidin-4-yl)thiazol-4-yl)-4,5-dihydroisoxazol-5-yl)phenyl methanesulfonate] as the compound, how does the inhibition of growth at 30 ppm read?
**A.** Its inhibition of growth at 30 ppm is ≥ 70%.

**Q.** For `COc1cncnc1OCC(=O)N1CCC(c2nc(C3=NOC(c4c(Cl)cccc4C#N)C3)cs2)CC1` (stereo not drawn) [Compound 71, 3-chloro-2-(3-(2-(1-(2-((5-methoxypyrimidin-4-yl)oxy)acetyl)piperidin-4-yl)thiazol-4-yl)-4,5-dihydroisoxazol-5-yl)benzonitrile], which inhibition of growth at 30 ppm is on record?
**A.** The inhibition of growth at 30 ppm was ≥ 70%.

**Q.** How did the inhibition of growth at 30 ppm turn out when `COc1nccnc1OCC(=O)N1CCC(c2nc(C3=NOC(c4c(Cl)cc(Cl)cc4Cl)C3)cs2)CC1` (stereo not drawn) [Compound 24, 2-((3-methoxypyrazin-2-yl)oxy)-1-(4-(4-(5-(2,4,6-trichlorophenyl)-4,5-dihydroisoxazol-3-yl)thiazol-2-yl)piperidin-1-yl)ethan-1-one] was run?
**A.** Its inhibition of growth at 30 ppm is ≥ 70%.

**Q.** How did the inhibition of growth at 30 ppm turn out when `COc1cncnc1OCC(=O)N1CCC(c2nc(C3=NOC(c4c(F)cccc4F)C3)cs2)CC1` (stereo not drawn) [Compound 76, 1-(4-(4-(5-(2,6-difluorophenyl)-4,5-dihydroisoxazol-3-yl)thiazol-2-yl)piperidin-1-yl)-2-((5-methoxypyrimidin-4-yl)oxy)ethan-1-one] was run?
**A.** The inhibition of growth at 30 ppm was ≥ 70%.

**Q.** `O=C(COc1nccc(C(F)(F)F)n1)N1CCC(c2nc(C3=NOC(c4c(F)cccc4Br)C3)cs2)CC1` (stereo not drawn) [Compound 52, 1-(4-(4-(5-(2-bromo-6-fluorophenyl)-4,5-dihydroisoxazol-3-yl)thiazol-2-yl)piperidin-1-yl)-2-((4-(trifluoromethyl)pyrimidin-2-yl)oxy)ethan-1-one] was tested. Which inhibition of growth at 30 ppm did it give?
**A.** The inhibition of growth at 30 ppm was ≥ 70%.

**Q.** With `O=C(COc1ccc(C(F)(F)F)nn1)N1CCC(c2nc(C3=NOC(c4c(Cl)cccc4C(F)(F)F)C3)cs2)CC1` (stereo not drawn) [Compound 66, 1-(4-(4-(5-(2-chloro-6-(trifluoromethyl)phenyl)-4,5-dihydroisoxazol-3-yl)thiazol-2-yl)piperidin-1-yl)-2-((6-(trifluoromethyl)pyridazin-3-yl)oxy)ethan-1-one] as the compound, how does the inhibition of growth at 30 ppm read?
**A.** The inhibition of growth at 30 ppm was ≥ 70%.

**Q.** `N#Cc1nccc(OCC(=O)N2CCC(c3nc(C4=NOC(c5c(O)cccc5Cl)C4)cs3)CC2)n1` (stereo not drawn) [Compound 95, 4-(2-(4-(4-(5-(2-chloro-6-hydroxyphenyl)-4,5-dihydroisoxazol-3-yl)thiazol-2-yl)piperidin-1-yl)-2-oxoethoxy)pyrimidine-2-carbonitrile] was tested. Which inhibition of growth at 30 ppm did it give?
**A.** Its inhibition of growth at 30 ppm is ≥ 70%.

**Q.** How did the inhibition of growth at 30 ppm turn out when `COc1cncc(OCC(=O)N2CCC(c3nc(C4=NOC(c5c(Cl)cccc5C#N)C4)cs3)CC2)n1` (stereo not drawn) [Compound 100, 3-chloro-2-(3-(2-(1-(2-((6-methoxypyrazin-2-yl)oxy)acetyl)piperidin-4-yl)thiazol-4-yl)-4,5-dihydroisoxazol-5-yl)benzonitrile] was run?
**A.** The inhibition of growth at 30 ppm was ≥ 70%.

**Q.** Which inhibition of growth at 30 ppm does the source give for `O=C(COc1cncc(C(F)(F)F)n1)N1CCC(c2nc(C3=NOC(c4c(Cl)cccc4Cl)C3)cs2)CC1` (stereo not drawn) [Compound 55, 1-(4-(4-(5-(2,6-dichlorophenyl)-4,5-dihydroisoxazol-3-yl)thiazol-2-yl)piperidin-1-yl)-2-((6-(trifluoromethyl)pyrazin-2-yl)oxy)ethan-1-one] here?
**A.** Its inhibition of growth at 30 ppm is ≥ 70%.
